Assays:
RBP4-TTR interaction = RBP4-TTR interaction (Homo sapiens, UniProt P02753); experiment: High throughput in vitro assay detecting inhibition of RBP-TTR interaction; type: binding; details: Table 1, read-out: Apparent 50 IC
Procedure: In some embodiments, the modulators disclosed herein are also used in in vitro assays for detecting perturbations in RBP or TTR activity. For example, the modulator is added to a sample comprising RBP, TTR and retinol to detect complex disruption. A component, for example, RBP, TTR, retinol or the modulator, is labeled to determine if disruption of complex formation occurs. For example, complex formation and subsequent disruption is detected and/or measured through conventional means, such as the sandwich assays disclosed above. Other detection systems are also used to detect modulation of RBP or TTR binding, for example, FRET detection of RBP-TTR-retinol complex formation.
The optimal dose of compounds of Formula (I) or (II) to block formation of A2E in abca4-1 mice is determined using a standard dose escalation study. In order to determine the range of doses which will be employed, a high throughput, in vitro assay which detects modulators that inhibit RBP-TTR interaction has been developed. […] An illustrative in vivo approach, utilizing a compound having the structure of Formula (I) or (II) is presented below.

[1] = test system: panel of six cytochrome P450 isozymes; experiment: Cytochrome P450 inhibition profile (panel of six isozymes); type: in vitro ADME
RBP4+/+, ABCA4−/− mice = experiment: Serum retinol in HPR-treated mice compared with genetic reduction of RBP4; type: in vivo; details: HPR for a 28-day period, ABCA4+/− mice (>50% reduction)
Excerpt: FIG. 6. Genetic modulation of RBP4 in abca4 mutant mice: effects on serum retinol, RBP4 and toxic retinal fluorophores. A line of mice which expresses heterozygous mutations in RBP4 and ABCA4 (RBP4+/−, ABCA4+/−) was generated in order to determine if genetic reduction of RBP4 would be sufficient to reduce serum levels of retinol, RBP4 and toxic retinal fluorophores within the RPE. Serum retinol concentrations in RBP4+/−, ABCA4+/− mice were reduced by greater than 50% compared to mice with the normal complement of RBP (RBP4+/+, ABCA4−/−). […] Reductions in serum retinol correlated directly with reductions in RBP4, as determined by immunoblot analysis. Western blot identification of RBP4 in the various mouse lines is shown in panel B. Histological analysis were also performed. Tissue sections from RBP4+/+, ABCA4+/− mice (panel C), RBP4+/−, ABCA4+/− (panel D) and RBP4+/+, ABCA4+/+ (panel E) were analyzed by fluorescence microscopy.
Exploration of a non-pharmacological means of reducing lipofuscin fluorophores in order to validate our therapeutic approach based upon reduction of RBP levels in a patient will be performed. In this study, RBP protein levels will be reduced through genetic manipulation. Two new lines of mice expressing heterozygous mutations in retinol binding protein (RBP4) are generated. […]

Row | Compound | IC50 (RBP4-TTR interaction) [nM] | inhibition at 2 μM [1] [%] | degree of serum retinol reduction (RBP4+/+, ABCA4−/− mice)
1 | CC(C)(C)c1cc(Cl)ccc1OCCCCC(=O)Nc1ccc(CC(=O)O)cc1 [2-(4-(5-(2-tert-butyl-4-chlorophenoxy)pentanamido)phenyl)acetic acid] | 1000 | < 10 | –
2 | CC(C)(C)c1cc(Cl)ccc1OCC1CCC(C(=O)Nc2ccc(O)cc2)C1 (centres unmarked) [3-((2-tert-butyl-4-chlorophenoxy)methyl)-N-(4-hydroxyphenyl)cyclopentanecarboxamide] | – | < 10 | –
3 | CC(C)(C)c1cc(Cl)ccc1OCC1CCCC(C(=O)O)C1 (centres unmarked) [3-((2-tert-butyl-4-chlorophenoxy)methyl)cyclohexanecarboxylic acid] | 160 | < 10 | –
4 | CC(C)(C)c1cc(Cl)ccc1OCC1CCC(C(=O)O)C1 (centres unmarked) [3-((2-tert-butyl-4-chlorophenoxy)methyl)cyclopentanecarboxylic acid] | 400 | < 10 | –
5 | CC(C)(C)c1cc(Cl)ccc1OCCCC(=O)O [4-(2-tert-butyl-4-chlorophenoxy)butanoic acid] | 1000 | ~15 | –
6 | CC(C)(C)c1cc(Cl)ccc1OCC1CCC(C(=O)Nc2ccc(C(=O)O)cc2)C1 (centres unmarked) [4-(3-((2-tert-butyl-4-chlorophenoxy)methyl)cyclopentanamido)benzoic acid] | – | < 10 | –
7 | CC(C)(C)c1cc(Cl)ccc1OCCCCC(=O)Nc1ccc(C(=O)O)cc1 [4-(5-(2-tert-Butyl-4-chlorophenoxy)pentanamido)benzoic acid] | – | < 10 | –
8 | CC(C)(C)c1cc(Cl)ccc1OCCCCC(=O)Nc1ccc(O)cc1 [5-(2-tert-Butyl-4-chlorophenoxy)-N-(4-hydroxyphenyl)pentanamide] | 1000 | ~50 | –
9 | CC(C)(C)c1cc(Cl)ccc1OCCCCC(=O)O [5-(2-tert-Butyl-4-chlorophenoxy)pentanoic Acid] | 100 | ≤ 10 | –
10 | CC(C)(C)c1cc(Cl)ccc1OCCCCCCC(=O)Nc1ccc(O)cc1 [7-(2-tert-butyl-4-chlorophenoxy)-N-(4-hydroxyphenyl)heptanamide] | 1000 | ~40 | –
11 | CC(C)(C)c1cc(Cl)ccc1OCCCCCCC(=O)O [7-(2-tert-butyl-4-chlorophenoxy)heptanoic acid] | 500 | ~15 | –
12 | CC1=C(/C=C/C(C)=C/C=C/C(C)=C/C(=O)Nc2ccc(O)cc2)C(C)(C)CCC1 [HPR, fenretinide] | – | – | comparable

From patent US7973079B2, “Methods and compounds for treating retinol-related diseases” (Revision Therapeutics, Inc., priority 2007, dated 2011)
